Key:
[1] = tested on: CHO-K1 cells; experiment: γH2AX foci count after bleomycin DSB induction, CHO-K1; type: cell-based, Chinese hamster; settings: for Induced DSB number: one-hour treatment
Experimental: (§1) CHO-K1, bEnd.3 or transfected CHO-K1 cells were seeded in chambers of an 8-well chambered cover glass (Cellvis, Mountain View, Calif.) at 2×10^5 cells/mL with 0.5 mL culture media. After 24-hour incubation, cells were treated with 10 μg/mL bleomycin (Sigma-Aldrich, St. Louis, Mo.) for 1 or 12 hours or with 50 μg/mL for 1 hour, followed by immediate media change with fresh warm culture media. After indicated hours of incubation in fresh media, the treated cells were washed three times with Tris buffered saline (TBS), fixed with 4% paraformaldehyde in TBS for 15 min, washed three times with TBS, permeabilized with 0.1% Triton-X100 (Sigma-Aldrich, St. Louis, Mo.) in TBS for 5 min, and washed three times with TBS. Cells were then blocked in TBS containing 3% goat serum (Sigma-Aldrich, St. Louis, Mo.) for 1 hour, incubated with 1:500 primary antibody (anti-phosphorylated γH2AX antibody, EMD Millipore, Billerica, Mass.) at 4° C. overnight, washed three times with TBS, and incubated with 1:1000 Alexa Fluor 488-conjugated secondary antibody (anti-mouse IgG antibody, Life Technologies, Carlsbad, Calif.) for 1 hour at room temperature. After three TBS washes, nuclei were stained with 4′,6-diamidino-2-phenylindole (DAPI, Invitrogen, Carlsbad, Calif.) for 15 min and again washed three times with TBS. Images were taken using a LSM 710 confocal microscope (Carl Zeiss, Thornwood, N.Y.) with a 63× objective. At least 50 cells and foci were counted per cell sample in duplicate cultures using software ImageJ.

[2] = tested on: BHK-21 hamster fibroblast; experiment: γH2AX foci count after bleomycin DSB induction, BHK-21; type: cell-based; settings: for Induced DSB number: one-hour treatment
Experimental: [The source words this procedure for another cell line and reports this cell line under the same test.] as §1

[3] = tested on: bEnd.3 mouse endothelial cells; experiment: γH2AX foci count after bleomycin DSB induction, bEnd.3; type: cell-based; settings: for Induced DSB number: one-hour treatment
Experimental: as §1

[4] = tested on: CHO-K1 cells; experiment: γH2AX foci count in CHO-K1 cells transiently expressing DSB repair genes after bleomycin treatment; type: cell-based, Chinese hamster; settings: CH-version gene transiently expressed; 12-hour 10 μg/mL bleomycin; FIG. 3
From the text: To clone eight DSB repair genes, total mRNA from CHO-K1 cells or Chinese hamster liver tissue was extracted using Qiagen RNeasy Mini kit and reverse-transcribed into cDNA to be used as templates to generate gene fragments by PCR. FBXO18 gene and partial sequences of RNF8 and LIG4 genes were synthesized as gBlocks Gene Fragments (Integrated DNA Technologies, Coralville, Iowa). A vector fragment was obtained by PCR amplification from plasmid pcDNA3.1/zeo(+) (Thermo Fisher, Waltham, Mass.). Plasmids expressing DSB repair genes were constructed via Gibson assembly of gene fragment(s) and the vector fragment following the manufacturer's instruction (New England Biolabs, Ipswich, Mass.).
CHO-K1, BHK-21 hamster fibroblast (ATCC, Manassas, Va.) and bEnd.3 mouse endothelial cells (ATCC, Manassas, Va.) were cultured in 5 mL Iscove's Modified Dulbecco's Medium (IMDM, Hyclone Laboratories Inc., Logan, Utah) supplemented with 10% fetal bovine serum (FBS, Hyclone Laboratories Inc., Logan, Utah) in T-25 culture flasks (Corning Inc., Corning, N.Y.) at 37° C. and 5% CO2. […]
CHO-K1, bEnd.3 or transfected CHO-K1 cells were seeded in chambers of an 8-well chambered cover glass (Cellvis, Mountain View, Calif.) at 2×10^5 cells/mL with 0.5 mL culture media. […] At least 50 cells and foci were counted per cell sample in duplicate cultures using software ImageJ.

bleomycin
DSB repair rate after removing bleomycin ([1]; CHO cells, 12-hour treatment with 10 μg/mL bleomycin): 0.89 DSB per hour
Induced DSB number ([1]; CHO-K1, BL 10 μg/mL): 6
Induced DSB number ([1]; CHO-K1, BL 50 μg/mL): 13
Repair rate ([1]; CHO-K1, after BL 10 μg/mL one-hour treatment): 0.9 DSB/hour
Repair rate ([1]; CHO-K1, after BL 50 μg/mL one-hour treatment): 1.7 DSB/hour
Induced DSB number ([2]; BHK-21, BL 10 μg/mL): 13
Induced DSB number ([2]; BHK-21, BL 50 μg/mL): 20
Repair rate ([2]; BHK-21, after BL 10 μg/mL one-hour treatment): 1.8 DSB/hour
Repair rate ([2]; BHK-21, after BL 50 μg/mL one-hour treatment): 2.3 DSB/hour
DSB repair rate after removing bleomycin ([2]; BHK-21 cells, 12-hour treatment with 10 μg/mL bleomycin): 2.64 DSB per hour
DSB repair rate after removing bleomycin ([3]; bEnd.3 cells, 12-hour treatment with 10 μg/mL bleomycin): 1.03 DSB per hour
Induced DSB number ([3]; bEnd.3, BL 10 μg/mL): 14
Induced DSB number ([3]; bEnd.3, BL 50 μg/mL): 21
Repair rate ([3]; bEnd.3, after BL 10 μg/mL one-hour treatment): 2.2 DSB/hour
Repair rate ([3]; bEnd.3, after BL 50 μg/mL one-hour treatment): 3.2 DSB/hour

B1: LIG4: heterologous DSB repair protein DNA ligase IV, CH- or CHO-version, expressed from plasmid in CHO-K1 cells (protein, UniProt G3GTP0 1-912, looked up)
DNA ligase 4: MATSQTSQTVAAHVPFADLCSTLERIQKSKERAEKIRHFKEFLDSWRKFHDALHKNKKDVTDSFYPAMRLILPQLERERMAYGIKETMLAKLYIELLNLPREGKDALKLLNYRTPSGARTDAGDFAVIAYFVLKPRCLQKGSLTIQQVNELLDLVASNNSGKRKDLVKKSLLQLITQSSALEQKWLIRMIIKDLKLGVSQQTILNIFHNDAVELHNVTTDLEKVCRQLHDPAVGLSDISITLFSAFKPMLAAVADVERVEKDMKQQSFYIETKLDGERMQMHKDGSVYQYFSRNGYNYTDQFGASPQEGTLTPFIHDAFRTDVQVCILDGEMMAYNPTTQTFMQKGVKFDIKRMVEDSDLQTCYCVFDVLMVNNKKLGRETLRKRYDILNSTFTPIQGRIEIVQKKLAQTKNEVVDALNEAIDKREEGIMIKHPLSIYKPDKRGEGWLKIKPEYVSGLMDELDLLIVGGYWGKGSRGGMMSHFLCAVAEKPPHGEKPSVFHTLCRVGSGYTMKELYDLGLKLAKYWKPFHKKSPPSSILCGTEKPEVYIEPCNSVIVQIKAAEIVPSDMYKTGTTLRFPRIEKIRDDKEWHECMTLGDLEELRGKASGKLATKHLHVGDDDEPREKRRKPVSKMKKTIGIIEHLKAPNLSNISKVSNVFEDVEFCVMSGLDGYPKSDLENRIAEFGGYIVQNPGPDTYCVIAGCENIRVKNIISSDQHDVVKPEWLLECFKTKTCVPWQPRFMIHMCPSTKQHFAREYDCYGDSYFVDTDLDQLKEVFLGIKKAGEHQTPEEMAPVIADLEYRYSWDHSPLCMFRHCTVYLDLYAVINDSSSKIKATRLDVTALELRFHGAKVVSHLSEGVSHVIIGENQSRVSDFKVFRRTLKKKFKILQERWVTDSVDKGELQEENQYLL
DSB level at one hour after bleomycin removal versus control CHO-K1 cells [4]: lower DSB level
DSB repair within 24 hours after bleomycin removal versus control CHO-K1 cells [4]: significantly improved DSB repair

Reference: patent publication US20210380948A1, “METHOD TO ALTER CHINESE HAMSTER OVARY CELL LINE STABILITY” (University of Delaware, priority 2018, published 2021)
